Assay [1] has as its system C. elegans. Nature of the assay: Suppression of trichlorfon (AChE inhibitor) paralysis, double dose-response, scored after 80 min. The assay is classed as in vivo, Caenorhabditis elegans. Particulars: for EC50: Caenorhabditis elegans, ± 95% CI; for % para (percentage of animals able to adopt a clear sinusoidal wave pattern upon touch on the nose): wild-type, bio rep 1-3.

A further assay has as its target T1, rat VAChT (Rattus norvegicus, UniProt Q62666).
T1 construct: expressed in transfected cells; host or cells: rat PC12 (PC12 A123.7) cells, stably transfected; shared by Dr. Ali Roghani (Texas Tech University)
T1 sequence (Q62666 1-530): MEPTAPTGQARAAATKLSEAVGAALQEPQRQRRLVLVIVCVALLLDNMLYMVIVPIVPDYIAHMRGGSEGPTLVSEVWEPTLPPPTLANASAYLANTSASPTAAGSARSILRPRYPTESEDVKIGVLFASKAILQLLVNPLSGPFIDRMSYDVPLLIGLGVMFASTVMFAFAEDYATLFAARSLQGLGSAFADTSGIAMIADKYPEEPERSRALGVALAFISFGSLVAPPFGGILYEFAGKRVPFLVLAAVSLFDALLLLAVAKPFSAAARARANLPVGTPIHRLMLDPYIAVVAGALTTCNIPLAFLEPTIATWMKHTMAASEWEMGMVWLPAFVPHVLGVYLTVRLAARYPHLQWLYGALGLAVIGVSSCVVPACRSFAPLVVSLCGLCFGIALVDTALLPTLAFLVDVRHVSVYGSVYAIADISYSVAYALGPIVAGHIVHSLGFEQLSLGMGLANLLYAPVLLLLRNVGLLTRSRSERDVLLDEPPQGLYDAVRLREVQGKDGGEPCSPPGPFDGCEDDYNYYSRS
Briefly: [3H]Vesamicol competitive radioligand binding, PC12 cells expressing ratVAChT. Particulars: for specific binding in % of total binding (corrected by nonspecific binding NB), mean: rVAChT-PC12, 21°C, 1% DMSO.

The next assay relates to Pristionchus pacificus. Briefly: Pristionchus pacificus motor disruption dose-response on solid media, 1 h. Particulars: for mean % any phene (coiled, jerky-Unc or paralyzed): Pristionchus pacificus young adults, mean of three biological replicates.
Assay [2] relates to Dirofilaria immitis microfilariae. Nature of the assay: Dirofilaria immitis microfilariae immobility assay (DiroImager, 72 h). Particulars: for % effect (motility), DIROIM MF: Dirofilaria immitis microfilariae. In outline: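 Motility read after 72 h drug exposure with an image-based high-throughput plate imager, 1% DMSO medium serving as negative control. Missouri-isolate microfilariae, roughly 250 per well, freshly purified and cultured in supplemented RPMI 1640.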

The subject of assay [3] is C. elegans. Nature of the assay: C. elegans motor phenotype scoring on solid media (Punc/jerky-unc, coiled, paralyzed), wild-type young adults. The assay is classed as in vivo, Caenorhabditis elegans. The settings on record: for any phene (mean % fraction of young adults exhibiting any phenotype: coiled, jerky-Unc or paralyzed): one hour, mean of three biological replicates; for EC50: Caenorhabditis elegans, any motor phenotype after 1 h on solid media, ± 95% CI, read-out: C. elegans - motor disruption EC50.

The subject of assay [4] is Dirofilaria immitis L3/L4. Nature of the assay: Dirofilaria immitis L3/L4 motility assay (DiroImager, 72 h). The settings on record: Dirofilaria immitis L4.
Setting [5] is: 3.75uM, third c14 line of each analog.
Where [6] appears, read: 15uM, second c14 line of each analog.

As a reminder, the EC50 is the midpoint of the concentration-response curve. The Ki is the dissociation constant of the complex between target and ligand, obtained from inhibition or displacement.

Values joined by “and” are separate entries in the source; they are usually repeats but may differ in a detail not shown here. Equal values may be shown once.

As to `COP(=O)(OC)C(O)C(Cl)(Cl)Cl` (centres unmarked) [trichlorfon], the EC50 in the assay on C. elegans [1] (read-out: EC50 of trichlorfon paralysis, nemacol-1 15 μM) was 132 ± 34 µM; in the assay with C. elegans [1] (read-out: EC50 of trichlorfon paralysis, nemacol-1 30 μM) it was 178 ± 17 µM; in the assay with C. elegans [1] (read-out: EC50 of trichlorfon paralysis, nemacol-1 60 μM), 138 ± 60 µM; in the assay on C. elegans [1] (read-out: EC50 of trichlorfon paralysis, trichlorfon alone), 83 ± 7 µM; in the assay with C. elegans [1] (read-out: EC50 of trichlorfon paralysis, vesamicol 31.3 μM), 102 ± 11 µM; in the assay on C. elegans [1] (read-out: EC50 of trichlorfon paralysis, vesamicol 62.5 μM), 121 ± 10 µM. Besides, the EC50 with C. elegans [1] (read-out: EC50 of trichlorfon paralysis, vesamicol 125 μM) was 145 ± 17 µM; with C. elegans [1] (read-out: EC50 of trichlorfon paralysis, vesamicol 250 μM) it was 180 ± 22 µM; in the assay with C. elegans [1] (read-out: EC50 of trichlorfon paralysis, vesamicol 500 μM) it was 201 ± 27 µM. Besides, the “% para (percentage of animals able to adopt a clear sinusoidal wave pattern upon touch on the nose)” value in the assay on C. elegans [1] (trichlorfon 25 uM, Nemacol-1 0 uM (Nemacol-1 series)) is 92.8571% and 100%; in the assay with C. elegans [1] (trichlorfon 25 uM, vesamicol 0 uM (vesamicol series)), 92.8571% and 100%; in the assay with C. elegans [1] (trichlorfon 50 uM, Nemacol-1 0 uM (Nemacol-1 series)), 85.7143% and 75% and 67.8571%; in the assay on C. elegans [1] (trichlorfon 50 uM, vesamicol 0 uM (vesamicol series)) it was 71.4286% and 75% and 96.4286%; with C. elegans [1] (trichlorfon 100 uM, vesamicol 0 uM (vesamicol series)) it was 42.8571% and 50%; in the assay with C. elegans [1] (trichlorfon 200 uM, Nemacol-1 0 uM (Nemacol-1 series)) it was 7.143% and 3.571%. Moreover, the “% para (percentage of animals able to adopt a clear sinusoidal wave pattern upon touch on the nose)” value in the assay with C. elegans [1] (trichlorfon 400 uM, Nemacol-1 0 uM (Nemacol-1 series)) was 0%; with C. elegans [1] (trichlorfon 400 uM, vesamicol 0 uM (vesamicol series)) it was 0% and 3.571%; in the assay on C. elegans [1] (trichlorfon 800 uM, Nemacol-1 0 uM (Nemacol-1 series)), 0%; in the assay on C. elegans [1] (trichlorfon 800 uM, vesamicol 0 uM (vesamicol series)), 0%.
For `O[C@@H]1CCCC[C@H]1N1CCC(c2ccccc2)CC1` [minus Vesamicol], the “specific binding in % of total binding (corrected by nonspecific binding NB), mean” value (“specific binding in % of total binding” for short) at rat VAChT (competitor 1.00E-05 M, experiment 2019-10-30, 2.92E-09 M 3H-vesamicol, 120 min) was found to be 0.0405%; on rat VAChT (competitor 1.00E-05 M, experiment 2019-11-21, 2.20E-09 M 3H-vesamicol, 90 min), 1.18e-15%; on rat VAChT (competitor 1.00E-06 M, experiment 2019-10-30, 2.92E-09 M 3H-vesamicol, 120 min), 5%; on rat VAChT (competitor 1.00E-06 M, experiment 2019-11-21, 2.20E-09 M 3H-vesamicol, 90 min), 4%; at rat VAChT (competitor 1.00E-07 M, experiment 2019-10-30, 2.92E-09 M 3H-vesamicol, 120 min), 29%; on rat VAChT (competitor 1.00E-07 M, experiment 2019-11-21, 2.20E-09 M 3H-vesamicol, 90 min), 28%. For the same compound, the “specific binding in % of total binding” value on rat VAChT (competitor 1.00E-08 M, experiment 2019-10-30, 2.92E-09 M 3H-vesamicol, 120 min) was 79%; at rat VAChT (competitor 1.00E-08 M, experiment 2019-11-21, 2.20E-09 M 3H-vesamicol, 90 min), 82%; on rat VAChT (competitor 1.00E-09 M, experiment 2019-10-30, 2.92E-09 M 3H-vesamicol, 120 min) it was 94%; at rat VAChT (competitor 1.00E-09 M, experiment 2019-11-21, 2.20E-09 M 3H-vesamicol, 90 min) it was 98%; at rat VAChT (competitor 1.00E-10 M, experiment 2019-10-30, 2.92E-09 M 3H-vesamicol, 120 min) it was 97%; at rat VAChT (competitor 1.00E-10 M, experiment 2019-11-21, 2.20E-09 M 3H-vesamicol, 90 min), 98%. Besides, the “specific binding in % of total binding” value at rat VAChT (competitor 1.00E-11 M, experiment 2019-10-30, 2.92E-09 M 3H-vesamicol, 120 min) came out at 95%; on rat VAChT (competitor 1.00E-11 M, experiment 2019-11-21, 2.20E-09 M 3H-vesamicol, 90 min) it was 96%.
Turning to `Cc1cc([N+](=O)[O-])ccc1N1CCN(CC2CCCCC2)CC1` [Nemacol-23, 1-(cyclohexylmethyl)−4-(2-methyl-4-nitrophenyl)piperazine], the “mean % any phene (coiled, jerky-Unc or paralyzed)” value in the assay on Pristionchus pacificus (conc 3.75, observed at one hour) is recorded as 1.667%; in the assay with Pristionchus pacificus (conc 15, observed at one hour), 0.8333%; with Pristionchus pacificus (conc 60, observed at one hour), 7.5%. The EC50 with Pristionchus pacificus (Pristionchus pacificus, 1 h, read-out: P. pacificus motor disruption EC50) was > 60 µM; with C. elegans [3] it was 32.1 ± 48.2 µM. Also, the “% effect (motility), DIROIM MF” value in assay [2] (0.016 µM), in assay [2] (0.08 µM), in assay [2] (0.4 µM), in assay [2] (2 µM) and in assay [2] (10 µM) was 0% in each case. Further, the “any phene (mean % fraction of young adults exhibiting any phenotype: coiled, jerky-Unc or paralyzed)” value came to 15.8333% with C. elegans [3] (setting [5]); 33.3333% with C. elegans [3] (setting [6]); 63.3333% in the assay on C. elegans [3] (60uM, first c14 line of each analog). Besides, the “% effect (motility), DIROIM L4” value amounted to 0% in assay [4] (2 µM), 5% in assay [4] (10 µM) and 100% in assay [4] (50 µM).
For the compound `O=[N+]([O-])c1ccc(N2CCN(C3CCCCCC3)CC2)cc1` [Nemacol-19], on rat VAChT ([3H]Vesamicol displacement, mean, read-out: ratVAChT Ki), the inhibition constant (Ki) turned out to be 0.462 µM. Besides, the “% effect (motility), DIROIM MF” value in assay [2] (0.016 µM) is given as 0%; in assay [2] (0.08 µM), 0%; in assay [2] (0.4 µM), 0%; in assay [2] (2 µM) it was 0%; in assay [2] (10 µM) it was 40%. For the same compound, the EC50 in assay [2] (Dirofilaria immitis, 72 h, read-out: Dirofilaria immitis filariae EC50) came out at 10.7 µM; with C. elegans [3], 4.1 ± 1.4 µM. Besides, the entries for the “any phene (mean % fraction of young adults exhibiting any phenotype: coiled, jerky-Unc or paralyzed)” value with C. elegans [3] (setting [5]) and with C. elegans [3] (setting [6]) were 43.3333% and 97.5%, respectively. Further, the “% effect (motility), DIROIM L4” value was determined as 0% in assay [4] (2 µM), 0% in assay [4] (10 µM) and 100% in assay [4] (50 µM).

The values are drawn from PMC10066365, “Nemacol is a small molecule inhibitor of C. elegans vesicular acetylcholine transporter with anthelmintic potential” (Nature Communications, 2023).
